Experimental data as given in patent publication US11806350B2, “Prevention and/or treatment of CNS disorders” (ILDONG PHARMACEUTICAL CO., LTD., priority 2020, dated 2023).

Columns and labels:
[1] = target: T1, Human recombinant adenosine A1 receptors (Homo sapiens, UniProt P30542); assay: Human adenosine A1 receptor binding assay ([3H]DPCPX); conditions: membranes of CHO-K1 cells, 1 nM [3H]DPCPX, 90 minutes at 25° C.; read-out: hAl Ki
T1 construct: expressed in transfected cells; host or cells: CHO-K1 cells (membrane preparation)
T1 sequence (P30542 1-326): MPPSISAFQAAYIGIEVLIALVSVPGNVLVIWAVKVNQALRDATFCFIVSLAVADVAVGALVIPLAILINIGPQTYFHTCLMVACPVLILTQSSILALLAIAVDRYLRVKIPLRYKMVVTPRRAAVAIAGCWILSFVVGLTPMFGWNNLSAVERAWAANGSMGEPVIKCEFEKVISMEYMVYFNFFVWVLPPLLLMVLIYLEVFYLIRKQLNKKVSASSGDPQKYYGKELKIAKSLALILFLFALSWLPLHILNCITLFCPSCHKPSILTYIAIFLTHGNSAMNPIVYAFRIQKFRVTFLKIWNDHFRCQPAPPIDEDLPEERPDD
Method: 2.1 Human Adenosine A1 Receptor Binding Assay
Test compound is weighed, dissolved in DMSO to make a stock solution of 10 mM, diluted with DMSO to prepare working solutions, then 100-fold diluted to the indicated concentrations. Human recombinant adenosine A1 receptors expressed in CHO-K1 cells were used to prepare membranes in incubation buffer (20 mM HEPES (4-(2-hydroxyethyl)-1-piperazineethanesulfonic acid) pH 7.4, 10 mM MgCl2, 100 mM NaCl). Test compound or vehicle (2.2 μL) was added in 200 μL of membranes and incubated with 20 μL of 1 nM [^3H] DPCPX (8-cyclopentyl-1,3-dipropylxanthine) for 90 minutes at 25° C. Non-specific binding was estimated in the presence of 100 μM R(−)-PIA ((R)—N-(1-methyl-2-phenylethyl)adenosine). The incubation was stopped by vacuum filtration onto 0.3% PEI (polyethylenimine) presoaked GF/B filters using a harvester followed by four washes with ice-cold 50 mM Tris-HCl, pH 7.4, and the radioactivity on GF/B filtermats counted in a scintillation counter (PerkinElmer Topcount™) to determine [^3H] DPCPX specifically bound. Final concentration of vehicle DMSO is 1%.
(§1) Data is fitted using the non-linear curve fitting routines in Meth-IQ software (ID Business Solutions Ltd., UK). IC50 is converted to Ki by Cheng-Prusoff equation: Ki=IC50/(1+[L]/KD) where [L] is concentration of radiolabeled ligand used in the assay.

[2] = target: T2, Human recombinant adenosine A2A receptors (Homo sapiens, UniProt P29274); assay: Human adenosine A2A receptor binding assay ([3H]CGS-21680); conditions: for Ki: membranes of HEK-293 cells, 50 nM [3H]CGS-21680, 90 minutes at 25° C., read-out: hA2A Ki; for activity as dual antagonists of both A2A and A1 receptors: summary in words of the A2A and A1 binding results of Table 2
T2 construct: expressed in transfected cells; host or cells: HEK-293 cells (membrane preparation)
T2 sequence (P29274 whole entry): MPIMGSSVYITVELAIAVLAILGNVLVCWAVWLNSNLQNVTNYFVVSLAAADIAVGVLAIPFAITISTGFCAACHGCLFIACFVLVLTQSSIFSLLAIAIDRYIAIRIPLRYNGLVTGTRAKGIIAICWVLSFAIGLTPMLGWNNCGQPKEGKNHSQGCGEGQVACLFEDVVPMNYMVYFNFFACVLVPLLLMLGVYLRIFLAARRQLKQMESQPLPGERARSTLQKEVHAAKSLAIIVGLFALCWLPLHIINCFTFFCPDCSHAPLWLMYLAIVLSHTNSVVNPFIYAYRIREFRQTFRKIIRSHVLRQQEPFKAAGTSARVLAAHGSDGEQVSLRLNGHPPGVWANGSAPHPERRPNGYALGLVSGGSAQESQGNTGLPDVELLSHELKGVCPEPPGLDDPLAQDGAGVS
Method: 2.2 Human Adenosine A2A Receptor Binding Assay
Test compound is weighed, dissolved in DMSO to make a stock solution of 10 mM, diluted with DMSO to prepare working solutions, then 100-fold diluted to the indicated concentrations. Human recombinant adenosine A2A receptors expressed in HEK-293 cells were used to prepare membranes in incubation buffer (50 mM Tris-HCl, pH 7.4, 10 mM MgCl2, 1 mM EDTA, 2 U/ml Adenosine Deaminase). Test compound or vehicle (2.2 μL) was added in 200 μL of membranes and incubated with 20 μL of 50 nM [^3H] […] Non-specific binding was estimated in the presence of 50 μM NECA (5′-N-ethylcarboxamidoadenosine). The incubation was stopped by vacuum filtration onto 0.3% PEI (polyethylenimine) presoaked GF/B filters using a harvester followed by four washes with ice-cold 50 mM Tris-HCl, pH 7.4, and the radioactivity on GF/B filtermats counted in a scintillation counter (PerkinElmer TOPCOUNT™) to determine [^3H] […] Final concentration of vehicle DMSO is 1%.
as §1

SMILES	Ki [1] [nM]	Ki [2] [nM]	activity as dual antagonists of both A2A and A1 receptors [2]
N#Cc1cncc(-c2nc(N)nc3c2cnn3Cc2c(F)cccc2F)c1 [Compound 233, 5-(6-amino-1-(2,6-difluorobenzyl)-1H-pyrazolo[3,4-d]pyrimidine-4-yl)nicotinonitrile]	1000 to 10000	200 to 1000	–
N#Cc1cccc(-c2nc(N)nc3c2cnn3Cc2ccc(N)c(C(F)(F)F)c2)c1F [Compound 211, 3-(6-amino-1-(4-amino-3-(trifluoromethyl)benzyl)-1H-pyrazolo[3,4-d]pyrimidine-4-yl)-2-fluorobenzonitrile]	≤ 100	< 20	potent activity as dual antagonists
N#Cc1cc(-c2nc(N)nc3c2cnn3Cc2ccc(N)cc2F)ccn1 [Compound 222, 4-(6-amino-1-(4-amino-2-fluorobenzyl)-1H-pyrazolo[3,4-d]pyrimidine-4-yl)picolinonitrile]	> 10000	1000 to 5000	–
N#Cc1ccnc(-c2nc(N)nc3c2cnn3Cc2c(F)cc(N)cc2F)c1 [Compound 224, 2-[6-amino-1-[(4-amino-2,6-difluoro-phenyl)methyl]pyrazolo[3,4-d]pyrimidine-4-yl]pyridine-4-carbonitrile]	100 to 1000	20 to 200	–
N#Cc1cccc(-c2nc(N)nc3c2cnn3Cc2c(F)cc(N)cc2F)n1 [Compound 223, 6-[6-amino-1-[(4-amino-2,6-difluoro-phenyl)methyl]pyrazolo[3,4-d]pyrimidine-4-yl]pyridine-2-carbonitrile]	100 to 1000	< 20	–
N#Cc1cccc(-c2nc(N)nc3c2cnn3Cc2ccc(N)cc2F)c1 [Compound 209, 3-(6-amino-1-(4-amino-2-fluorobenzyl)-1H-pyrazolo[3,4-d]pyrimidine-4-yl)benzonitrile]	100 to 1000	< 20	–
N#Cc1ccnc(-c2nc(N)nc3c2cnn3Cc2ccc(N)cc2F)c1 [Compound 220, 2-(6-amino-1-(4-amino-2-fluorobenzyl)-1H-pyrazolo[3,4-d]pyrimidine-4-yl)isonicotinonitrile]	100 to 1000	20 to 200	–
N#Cc1cccc(-c2nc(N)nc3c2cnn3Cc2ccc(N)cc2)n1 [Compound 215, 6-(6-amino-1-(4-aminobenzyl)-1H-pyrazolo[3,4-d]pyrimidine-4-yl)picolinonitrile]	100 to 1000	20 to 200	–
N#Cc1ccnc(-c2nc(N)nc3c2cnn3Cc2ccc(N)cc2)c1 [Compound 216, 2-(6-amino-1-(4-aminobenzyl)-1H-pyrazolo[3,4-d]pyrimidine-4-yl)isonicotinonitrile]	1000 to 10000	200 to 1000	–
Cc1cc(Cn2ncc3c(-c4cccc(C#N)c4F)nc(N)nc32)ccc1N [Compound 206, 3-(6-amino-1-(4-amino-3-methylbenzyl)-1H-pyrazolo[3,4-d]pyrimidine-4-yl)-2-fluorobenzonitrile]	≤ 100	< 20	potent activity as dual antagonists
CCn1c(=O)c2c(nc(/C=C/c3ccc(OC)c(OC)c3)n2C)n(CC)c1=O [Istradefylline, reference compound]	100 to 1000	–	–
N#Cc1cc(-c2nc(N)nc3c2cnn3Cc2c(F)cc(N)cc2F)ccn1 [Compound 226, 4-(6-amino-1-(4-amino-2,6-difluorobenzyl)-1H-pyrazolo[3,4-d]pyrimidine-4-yl)picolinonitrile]	> 10000	1000 to 5000	–
N#Cc1ccnc(-c2nc(N)nc3c2cnn3Cc2ccc(N)c(C(F)(F)F)c2)c1 [Compound 235, 2-[6-amino-1-[[4-amino-3-(trifluoromethyl)phenyl]methyl]pyrazolo[3,4-d]pyrimidine-4-yl]pyridine-4-carbonitrile]	100 to 1000	< 20	–
Cc1cc(Cn2ncc3c(-c4cccc(C#N)c4)nc(N)nc32)ccc1N [Compound 204, 3-(6-amino-1-(4-amino-3-methylbenzyl)-1H-pyrazolo[3,4-d]pyrimidine-4-yl)benzonitrile]	100 to 1000	< 20	–
N#Cc1cccc(-c2nc(N)nc3c2cnn3Cc2c(F)cc(N)cc2F)c1 [Compound 207, 3-(6-amino-1-(4-amino-2,6-difluorobenzyl)-1H-pyrazolo[3,4-d]pyrimidine-4-yl)benzonitrile]	≤ 100	< 20	potent activity as dual antagonists
N#Cc1cccc(-c2nc(N)nc3c2cnn3Cc2c(F)cccc2F)n1 [Compound 231, 6-(6-amino-1-(2,6-difluorobenzyl)-1H-pyrazolo[3,4-d]pyrimidine-4-yl)picolinonitrile]	100 to 1000	< 20	–
N#Cc1cccc(-c2nc(N)nc3c2cnn3Cc2ccc(N)cc2F)c1F [Compound 203, 3-(6-amino-1-(4-amino-2-fluorobenzyl)-1H-pyrazolo[3,4-d]pyrimidine-4-yl)-2-fluorobenzonitrile]	≤ 100	< 20	potent activity as dual antagonists
N#Cc1cc(-c2nc(N)nc3c2cnn3Cc2ccc(N)cc2)ccn1 [Compound 218, 4-(6-amino-1-(4-aminobenzyl)-1H-pyrazolo[3,4-d]pyrimidine-4-yl)picolinonitrile]	1000 to 10000	1000 to 5000	–
N#Cc1cc(-c2nc(N)nc3c2cnn3Cc2c(F)cccc2F)ccn1 [Compound 234, 4-[6-amino-1-[(2,6-difluorophenyl)methyl]pyrazolo[3,4-d]pyrimidine-4-yl]pyridine-2-carbonitrile]	1000 to 10000	200 to 1000	–
N#Cc1cncc(-c2nc(N)nc3c2cnn3Cc2c(F)cc(N)cc2F)c1 [Compound 225, 5-[6-amino-1-[(4-amino-2,6-difluoro-phenyl)methyl]pyrazolo[3,4-d]pyrimidine-4-yl]pyridine-3-carbonitrile]	1000 to 10000	1000 to 5000	–
N#Cc1ccnc(-c2nc(N)nc3c2cnn3Cc2c(F)cccc2F)c1 [Compound 232, 2-(6-amino-1-(2,6-difluorobenzyl)-1H-pyrazolo[3,4-d]pyrimidine-4-yl)isonicotinonitrile]	100 to 1000	20 to 200	–
N#Cc1cccc(-c2nc(N)nc3c2cnn3Cc2c(F)cccc2F)c1F [Compound 213, 3-(6-amino-1-(2,6-difluorobenzyl)-1H-pyrazolo[3,4-d]pyrimidine-4-yl)-2-fluorobenzonitrile]	≤ 100	< 20	potent activity as dual antagonists
N#Cc1cncc(-c2nc(N)nc3c2cnn3Cc2ccc(N)cc2F)c1 [Compound 221, 5-[6-amino-1-[(4-amino-2-fluoro-phenyl)methyl]pyrazolo[3,4-d]pyrimidine-4-yl]pyridine-3-carbonitrile]	> 10000	1000 to 5000	–
N#Cc1cncc(-c2nc(N)nc3c2cnn3Cc2ccc(N)cc2)c1 [Compound 217, 5-(6-amino-1-(4-aminobenzyl)-1H-pyrazolo[3,4-d]pyrimidine-4-yl)nicotinonitrile]	> 10000	1000 to 5000	–
Cc1cc(Cn2ncc3c(-c4cccc(C#N)n4)nc(N)nc32)ccc1N [Compound 227, 6-(6-amino-1-(4-amino-3-methylbenzyl)-1H-pyrazolo[3,4-d]pyrimidine-4-yl)picolinonitrile]	100 to 1000	< 20	–
N#Cc1cccc(-c2nc(N)nc3c2cnn3Cc2ccc(N)cc2F)n1 [Compound 219, 6-[6-amino-1-[(4-amino-2-fluoro-phenyl)methyl]pyrazolo[3,4-d]pyrimidine-4-yl]pyridine-2-carbonitrile]	100 to 1000	< 20	–
